Results on 7 compounds are retold here after patent US12454541B2, “Reagent for measuring oxygen concentration in cell and tissue” (NATIONAL UNIVERSITY CORPORATION GUNMA UNIVERSITY, priority 2019, dated 2025).

A short description of series [1]: Photophysical properties of iridium complexes in a solution (absorption, phosphorescence spectrum, quantum yield, lifetime). In kind it is physicochemical. Conditions: for maximum absorption wavelength λabs / maximum emission (phosphorescence) wavelength λphos / molecular extinction coefficient ε: in acetonitrile at room temperature; for molecular extinction coefficient ε: at λabs; for phosphorescence lifetime τp / phosphorescence quantum yield Φp: in acetonitrile, under deoxidized conditions. From the text:
Photophysical properties of the phosphorescence of the compound represented by General Formula (I) or (II), such as the maximum absorption/phosphorescence wavelength, the phosphorescence quantum yield (Φp), and the phosphorescence lifetime (τp), can be measured by known measurement methods. For example, the maximum absorption/phosphorescence wavelength can be measured using a spectrophotometer or the like, and the phosphorescence quantum yield can be measured using a luminescence quantum yield measurement apparatus or the like, for a sample in which the compound represented by General Formula (I) or (II) is dissolved in a solvent or the like. Regarding the phosphorescence lifetime, the […] (τp) of the compound in each solvent can be measured using a phosphorescence lifetime measurement apparatus.
Absorption spectrum: ultraviolet and visible spectrophotometer, Ubest-550; manufactured by JASCO Corporation
Phosphorescence spectrum: multichannel spectroscope, PMA-12; manufactured by Hamamatsu Photonics K. K.
Phosphorescence quantum yield: luminescence quantum yield measurement apparatus, C9920-01; manufactured by Hamamatsu Photonics K. K.
Phosphorescence lifetime: compact fluorescence lifetime measurement apparatus, Quantaurus-Tau; manufactured by Hamamatsu Photonics K.K.
The maximum absorption wavelength (λabs) was found at 473 to 499 nm, and the molecular extinction coefficient (ε/dm^3 mol^−1 cm^−1) was not less than 70,000 dm^3 mol^−1 cm^−1. The maximum emission wavelength (λphos) was found at 577 to 622 nm. […] Therefore, the observed luminescence can be identified as a phosphorescence. […] These are higher quantum yields compared to those of the iridium complexes that have been reported so far.

The test system of series [2] is HeLa cells. Description: Phosphorescence imaging and microplate-reader phosphorescence intensity of HeLa cells with added iridium complex. The format is cell-based. Particulars: for phosphorescence intensity in imaging under oxygen partial pressure of 2.5% (intracellular oxygen responsiveness): HeLa cells, 500 nM, 2 hours culture, 2.5% vs 21% oxygen; for phosphorescence intensity in HeLa cells (comparison between complexes): final concentration 500 nM, 2 hours of culture, imaging and microplate reader. As for the experimental part: Luminescence micrograph: inverted research microscope, IX-71; manufactured by Olympus Corporation
(§1) Luminescence intensity, luminescence lifetime: microplate reader, Infinite 200 PRO; manufactured by TECAN.
Using the iridium complexes developed, imaging experiments for living cells were carried out. […] For quantitative evaluation, the phosphorescence intensity was measured using a microplate reader (FIG. 4).
For C6-BEDA and C545T-BEDA, intracellular oxygen responsiveness was evaluated. […] Further, as a result of measurement of the phosphorescence intensity using a microplate reader, it was shown that the phosphorescence intensity increases 3-fold or more under an oxygen partial pressure of 2.5% (FIG. 4).

Series [3] has as its system HT-29 cells. As to the kind of experiment: Tracing of intracellular oxygen by phosphorescence lifetime of C6-BEDA in HT-29 cells using a plate reader. Particulars: for change of phosphorescence lifetime of C6-BEDA in cells after additive: C6-BEDA 500 nM, plate sealed with oil, excitation 480 nm, measurement 600 nm; for change of phosphorescence lifetime of C6-BEDA in cells after additive / change of intracellular oxygen partial pressure after additive: antimycin A 10 μM or FCCP 1 μM; for change of intracellular oxygen partial pressure after additive: converted from C6-BEDA phosphorescence lifetime with calibration curve. The format is cell-based. As for the experimental part: as §1
Using a luminescence lifetime measurement mode of a commercially available plate reader, changes in the oxygen concentration in cells were traced. In a 96-well plate, HT-29 cells were plated at 50,000 cells/well, and cultured for 48 hours. Thereafter, C6-BEDA was added thereto to a final concentration of 500 nM, and culture was carried out for 2 hours. […] After sealing the plate with oil, the phosphorescence lifetime was measured using a plate reader (excitation wavelength, 480 nm; measurement wavelength, 600 nm; FIG. 6). The phosphorescence lifetime (τp/μs) was calculated using the following equation. τp=30/ln(W1/W2)
Here, W1 and W2 are the integrated values of the phosphorescence intensity obtained during the periods of 10 to 30 μs and 40 to 60 μs after the pulse excitation. In the cells to which no additive was added, the phosphorescence lifetime increased with time. […] This is due to the fact that intracellular oxygen consumption was stopped by the respiration inhibitory action of antimycin A, while intracellular oxygen consumption increased by the respiration-promoting action of FCCP. In order to convert the measured phosphorescence lifetime to the oxygen partial pressure, preparation of a calibration curve is necessary. Here, the calibration curve was prepared by measuring the phosphorescence lifetime at different oxygen partial pressures in the plate reader (pO2=1521.03225 exp(−τp/[…])) (FIG. 7).

For series [4], the system named is liver of a mouse. As to the kind of experiment: Phosphorescence lifetime imaging (PLIM) of liver of mouse after tail vein administration. In kind it is in vivo. Conditions: mouse under anesthesia, 250 nmol, excitation 488 nm. As for the experimental part: Subsequently, the in vivo dynamics was evaluated. In the present experiment, a microscope capable of acquiring a phosphorescence lifetime image as well as a phosphorescence intensity image (PLIM: phosphorescence lifetime imaging microscope) was used. To the tail vein of a mouse under anesthesia, 250 μL of a solution of C6-MEDA or C6-BEDA (physiological saline:DMSO=9:1, v/v, 250 nmol) was administered to carry out a phosphorescence intensity imaging experiment and a phosphorescence lifetime imaging experiment (excitation wavelength, 488 nm; monitoring wavelength, 510 to 560 nm). […] The liver is composed of functional units called hepatic lobules. Arteries and portal veins are present in the periphery of hepatic lobules, and veins are present in the center. It has thus been pointed out that there is a gradient of the oxygen partial pressure from the periphery to the center. […] It can be seen that the area with a short lifetime (which is blue in the color image) corresponds to the periphery of hepatic lobules, and that the area with a long lifetime (which is orange in the color image) corresponds to the area near the central vein.

Series [5] concerns kidney of a mouse. Description: Phosphorescence intensity and lifetime imaging (PLIM) of kidney of mouse after tail vein administration. In kind it is in vivo. Particulars: mouse under anesthesia, 250 nmol, excitation 488 nm.

For `CC1(C)CCN2CCC(C)(C)c3c2c1cc1[c-]c(-c2nc4ccccc4s2)c(=O)oc31.CC1(C)CCN2CCC(C)(C)c3c2c1cc1[c-]c(-c2nc4ccccc4s2)c(=O)oc31.CCCCNCCNCCCC.F[P-](F)(F)(F)(F)F.[Ir+3]` [C545T-BEDA, Bis[10-(benzo[d]thiazol-2-yl)-1,1,7,7-tetramethyl-2,3,6,7-tetrahydro-1H-pyrano [2,3-f]pyrido[3,2,1-ij]quinolin-11(5H)-one-κN, κC^4]N^1,N^2-dibutylethane-1,2-diamine iridium(III) hexafluorophosphate], in series [1], the “maximum absorption wavelength λabs” value came to 499 nm, the “maximum emission (phosphorescence) wavelength λphos” value (from here on “maximum emission”) turned out to be 622 nm, the “molecular extinction coefficient ε” value is listed as 90,600 dm^3mol^−1cm^−1 and the “phosphorescence lifetime τp” value came to 53.7 μs. Further, the “phosphorescence quantum yield Φp” value in series [1] amounted to 0.40. Also, in series [2], the “phosphorescence intensity in imaging under oxygen partial pressure of 2.5% (intracellular oxygen responsiveness)” value was “remarkable increases in the phosphorescence intensity” and the “phosphorescence intensity in HeLa cells (comparison between complexes)” value was “exhibit higher phosphorescence intensities”.

In the case of `CC1(C)CCN2CCC(C)(C)c3c2c1cc1[c-]c(-c2nc4ccccc4s2)c(=O)oc31.CC1(C)CCN2CCC(C)(C)c3c2c1cc1[c-]c(-c2nc4ccccc4s2)c(=O)oc31.CNCCNC.F[P-](F)(F)(F)(F)F.[Ir+3]` [C545T-MEDA, Bis[10-(benzo[d]thiazol-2-yl)-1,1,7,7-tetramethyl-2,3,6,7-tetrahydro-1H-pyrano [2,3-f]pyrido[3,2,1-ij]quinolin-11(5H)-one-κN, κC^4]N^1,N^2-dimethylethane-1,2-diamine iridium(III) hexafluorophosphate], in series [1], the “maximum absorption wavelength λabs” value is on record as 496 nm, the “maximum emission” value is on record as 621 nm, the “molecular extinction coefficient ε” value is 77,000 dm^3mol^−1cm^−1 and the “phosphorescence lifetime τp” value is on record as 46.5 μs. In series [1], the “phosphorescence quantum yield Φp” value worked out at 0.36.

`N#CC(C#N)=NNc1ccc(OC(F)(F)F)cc1` [FCCP]: in series [3], the “change of phosphorescence lifetime of C6-BEDA in cells after additive” value was “remarkably increased” and the “change of intracellular oxygen partial pressure after additive” value is “rapid decrease in the oxygen partial pressure”.

Regarding “Bis[3-(benzo[d]thiazol-2-yl)-7-(diethylamino)-2H-chromen-2-one-κN, κC^4]N^1,N^2-dibutylethane-1,2-diamine iridium(III) hexafluorophosphate [C6-BEDA]”, in series [1], the “maximum absorption wavelength λabs” value came to 482 nm, the “maximum emission” value was determined as 594 nm, the “molecular extinction coefficient ε” value is on record as 106,000 dm^3mol^−1cm^−1 and the “phosphorescence lifetime τp” value amounted to 34.8 μs. For the same compound, in series [1], the “phosphorescence quantum yield Φp” value was 0.65. Further, in series [2], the “phosphorescence intensity in imaging under oxygen partial pressure of 2.5% (intracellular oxygen responsiveness)” value is “remarkable increases in the phosphorescence intensity” and the “phosphorescence intensity in HeLa cells (comparison between complexes)” value is reported as “exhibit higher phosphorescence intensities”. The “suitability as probe for intracellular oxygen concentration” value in series [3] (500 nM, plate reader) is recorded as “capable of real-time tracing of changes in the intracellular oxygen concentration”. The “phosphorescence lifetime imaging of liver” value in series [4] is reported as “the presence of the gradient of the phosphorescence lifetime can be seen”.

Regarding “Bis[3-(benzo[d]thiazol-2-yl)-7-(diethylamino)-2H-chromen-2-one-κN, κC^4]N^1,N^2-dimethylethane-1,2-diamine iridium(III) hexafluorophosphate [C6-MEDA]”, in series [1], the “maximum absorption wavelength λabs” value stood at 481 nm, the “maximum emission” value was 593 nm, the “molecular extinction coefficient ε” value is recorded as 103,000 dm^3mol^−1cm^−1 and the “phosphorescence lifetime τp” value amounted to 38.7 μs. In series [1], the “phosphorescence quantum yield Φp” value worked out at 0.75. Besides, the imaging of kidney entry in series [5] is listed as “Renal tubular cells could be clearly imaged”.

With “Bis[3-(benzo[d]thiazol-2-yl)-7-(diethylamino)-2H-chromen-2-one-κN, κC^4]ethane-1,2-diamine iridium(III) hexafluorophosphate [C6-EDA]”, in series [1], the “maximum absorption wavelength λabs” value worked out at 473 nm, the “maximum emission” value was 577 nm, the “molecular extinction coefficient ε” value was 91,700 dm^3mol^−1cm^−1 and the “phosphorescence lifetime τp” value was found to be 38.9 μs. For the same compound, the “phosphorescence quantum yield Φp” value in series [1] is given as 0.82.

As for antimycin A, in series [3], the “change of phosphorescence lifetime of C6-BEDA in cells after additive” value is reported as “hardly changed” and the “change of intracellular oxygen partial pressure after additive” value was “slight increase in the oxygen partial pressure”.
